Values of other authors, collected in publication PMC2885594 (Current Chemical Genomics, 2010).

Tested on: TPH1
Settings: ref [30]

N[C@@H](Cc1c[nH]c2ccc(O)cc12)C(=O)O [5-HTP]
mechanism of inhibition versus phenylalanine: competitive | mechanism of inhibition versus pterin: uncompetitive
